{"source": "patent US20220177947A1", "about": "“Compounds to Identify Beta-Lactamases, and Methods of Use Thereof” (priority 2019, published 2022)", "key": {"[1]": {"system": "Enterobacteriaceae isolates", "format": "cell-based", "settings": "for resistance in the isolates (in words): all Enterobacteriaceae isolates, excluding intrinsic resistance", "procedure": "Urine culture, organism identification, AST, and ESBL confirmatory testing. Standard microbiological procedures were performed by the clinical laboratory as part of routine care for all urine samples used in this study, per the clinical laboratory's standard operating procedures. First, 1 μL or 10 μL of urine sample was plated on standard agar plates (blood agar and eosin methylene blue agar biplate), then visually inspected the next day for significant growth indicative of a UTI (≥10^4 CFU/mL cutoff applied). The MiscroScan WalkAway system (Beckman Coulter) was utilized for bacterial identification and AST of GNB and select GPB causing UTI. […] AST interpretations were based on CLSI's 2017 guidelines."}, "[2]": {"target": "T1, SHV-1 (Klebsiella pneumoniae, UniProt P0AD64)", "T1 sequence (P0AD64 22-286)": "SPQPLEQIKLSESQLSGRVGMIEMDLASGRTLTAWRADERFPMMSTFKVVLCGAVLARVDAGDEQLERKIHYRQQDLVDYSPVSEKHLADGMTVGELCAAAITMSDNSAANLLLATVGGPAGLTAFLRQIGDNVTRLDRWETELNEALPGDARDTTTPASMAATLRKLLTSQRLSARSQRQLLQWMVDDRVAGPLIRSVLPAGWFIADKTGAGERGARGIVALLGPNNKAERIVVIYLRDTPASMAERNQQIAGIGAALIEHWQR", "settings": "cited from earlier work"}, "[3]": {"system": "K. pneumoniae clinical isolates", "experiment": "DETECT with β-lactamase inhibitors (clavulanic acid)", "format": "cell-based", "settings": "original score/inhibitor score, 30 min", "procedure": "(§1) A solution of sodium clavulanate was prepared to 1 mg/400 μL in “buffer 1”, and 4 μL of this solution was added to both the sample and control well for each isolate tested, two min prior to addition of β-lactamase probe or acetonitrile to the sample and control well, respectively. […]"}, "[4]": {"system": "E. coli clinical isolates", "experiment": "DETECT with β-lactamase inhibitors (clavulanic acid)", "format": "cell-based", "settings": "original score/inhibitor score, 30 min", "procedure": "as §1"}, "[5]": {"target": "S. aureus PC1 (Staphylococcus aureus, UniProt P00807)", "sequence (P00807 25-281)": "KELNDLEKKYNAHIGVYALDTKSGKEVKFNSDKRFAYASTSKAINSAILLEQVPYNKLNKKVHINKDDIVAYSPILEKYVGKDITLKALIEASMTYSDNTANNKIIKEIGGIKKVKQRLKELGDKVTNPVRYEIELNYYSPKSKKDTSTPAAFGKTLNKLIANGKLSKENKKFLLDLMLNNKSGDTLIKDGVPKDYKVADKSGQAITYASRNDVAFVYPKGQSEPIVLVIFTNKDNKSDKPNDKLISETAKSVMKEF", "settings": "cited from earlier work"}, "[6]": {"target": "B. cereus I (Bacillus cereus, UniProt P00809)", "sequence (P00809 28-306)": "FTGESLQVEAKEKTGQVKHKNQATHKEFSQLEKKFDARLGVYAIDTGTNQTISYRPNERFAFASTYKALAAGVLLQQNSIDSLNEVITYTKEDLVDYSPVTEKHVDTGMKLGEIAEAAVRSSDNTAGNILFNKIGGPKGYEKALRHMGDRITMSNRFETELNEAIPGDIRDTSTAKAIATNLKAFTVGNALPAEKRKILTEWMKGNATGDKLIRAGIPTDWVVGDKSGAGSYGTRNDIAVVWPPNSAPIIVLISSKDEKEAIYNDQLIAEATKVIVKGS", "settings": "cited from earlier work"}, "[7]": {"target": "T2, TEM-1 (Escherichia coli, UniProt P62593)", "T2 sequence (P62593 24-286 limits assumed)": "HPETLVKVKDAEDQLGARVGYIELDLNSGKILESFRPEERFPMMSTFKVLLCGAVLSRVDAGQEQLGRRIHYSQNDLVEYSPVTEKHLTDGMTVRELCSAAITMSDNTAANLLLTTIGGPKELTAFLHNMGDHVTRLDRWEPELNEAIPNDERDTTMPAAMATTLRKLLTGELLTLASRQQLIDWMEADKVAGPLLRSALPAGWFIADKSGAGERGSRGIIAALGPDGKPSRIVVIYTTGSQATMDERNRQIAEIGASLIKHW", "settings": "cited from earlier work"}, "[8]": {"target": "T2, TEM-1", "settings": "cited from earlier work", "remark": "listed apart in the source"}, "[9]": {"target": "T1, SHV-1", "settings": "cited from earlier work", "remark": "listed apart in the source"}}, "note": "Where two headings read alike, the source gives them in different places."}
{"compound": "NCC[C@H](O)C(=O)N[C@@H]1C[C@H](N)[C@@H](O[C@H]2O[C@H](CN)[C@@H](O)[C@H](O)[C@H]2O)[C@H](O)[C@H]1O[C@H]1O[C@H](CO)[C@@H](O)[C@H](N)[C@H]1O", "note": "[amikacin]", "values": [{"measurement": "resistance identified, number of isolates", "setting": "[1]; CTX-M-producing bacteria", "value": "one"}]}
{"compound": "CO[C@@]1(NC(=O)Cc2cccs2)C(=O)N2C(C(=O)O)=C(COC(N)=O)CS[C@@H]21", "note": "[cefoxitin]", "values": [{"measurement": "resistance in the isolates (in words)", "setting": "[1]", "value": "rare"}]}
{"compound": "O=C(O)[C@H]1/C(=C/CO)O[C@@H]2CC(=O)N21", "note": "[clavulanic acid]", "values": [{"measurement": "turnover number (tn), inhibitor molecules to inactivate one β-lactamase enzyme", "setting": "[2]", "value": 60}, {"measurement": "Times-change in DETECT score, with clavulanic acid", "setting": "[3]; isolate B7: KPC-2, CTX-M-15, TEM-1B, SHV-11", "value": 2.3}, {"measurement": "Times-change in DETECT score, with clavulanic acid", "setting": "[3]; isolate B14: KPC-2, CTX-M-9, TEM-1A, SHV-11", "value": 2.4}, {"measurement": "Times-change in DETECT score, with clavulanic acid", "setting": "[3]; isolate B23: KPC-2, CTX-M-15, TEM-1B, SHV-11, OXA-1", "value": 4.4}, {"measurement": "Times-change in DETECT score, with clavulanic acid", "setting": "[3]; isolate FB13: CTX-M-15, CTX-M-8, TEM-1A, SHV-25/121, OXA-1", "value": 15.3}, {"measurement": "Times-change in DETECT score, with clavulanic acid", "setting": "[3]; isolate FB90: CTX-M-15, CTX-M-8, TEM-1A, SHV-25/121, OXA-1", "value": 14.2}, {"measurement": "Times-change in DETECT score, with clavulanic acid", "setting": "[3]; isolate HAF66: CTX-M-8, TEM-1, SHV-85", "value": 10.5}, {"measurement": "Times-change in DETECT score, with clavulanic acid", "setting": "[3]; isolate HAF102: CTX-M-8, TEM-1, SHV-76", "value": 8.2}, {"measurement": "Times-change in DETECT score, with clavulanic acid", "setting": "[3]; isolate HCD309: CTX-M-8, TEM-1, SHV-1", "value": 5.9}, {"measurement": "Times-change in DETECT score, with clavulanic acid", "setting": "[3]; isolate HCD405: CTX-M-15, SHV-25/121, OXA-1", "value": 17.6}, {"measurement": "Times-change in DETECT score, with clavulanic acid", "setting": "[3]; isolate HON257: CTX-M-2, TEM-15, SHV-25/121", "value": 23.0}, {"measurement": "Times-change in DETECT score, with clavulanic acid", "setting": "[3]; isolate SF681: CTX-M-15, TEM-1B, SHV-11, OXA-1", "value": 3.8}, {"measurement": "Times-change in DETECT score, with clavulanic acid", "setting": "[4]; isolate CDC-081: CMY-2, TEM-1B", "value": 1.6}, {"measurement": "Times-change in DETECT score, with clavulanic acid", "setting": "[4]; isolate CDC-085: CMY-2", "value": 1.3}, {"measurement": "Times-change in DETECT score, with clavulanic acid", "setting": "[4]; isolate CDC-086: CTX-M-14, TEM-1B", "value": 10.7}, {"measurement": "Times-change in DETECT score, with clavulanic acid", "setting": "[4]; isolate CDC-089: CMY-2", "value": 1.6}, {"measurement": "Times-change in DETECT score, with clavulanic acid", "setting": "[4]; isolate D14: CTX-M-15", "value": 5.4}, {"measurement": "Times-change in DETECT score, with clavulanic acid", "setting": "[4]; isolate D129: CTX-M-2, TEM, SHV", "value": 14.2}, {"measurement": "Times-change in DETECT score, with clavulanic acid", "setting": "[4]; isolate D270: CTX-M-17", "value": 12.9}, {"measurement": "Times-change in DETECT score, with clavulanic acid", "setting": "[4]; isolate D304: CTX-M-55/57", "value": 9.9}, {"measurement": "Times-change in DETECT score, with clavulanic acid", "setting": "[4]; isolate D333: CTX-M-14/17/18", "value": 10.3}, {"measurement": "Times-change in DETECT score, with clavulanic acid", "setting": "[4]; isolate D362: CTX-M-15", "value": 4.9}, {"measurement": "Times-change in DETECT score, with clavulanic acid", "setting": "[4]; isolate D497: CTX-M-15", "value": 3.2}, {"measurement": "Times-change in DETECT score, with clavulanic acid", "setting": "[4]; isolate D500: CTX-M-27, CMY-2/130", "value": 1.7}, {"measurement": "Times-change in DETECT score, with clavulanic acid", "setting": "[4]; isolate SF141: CMY-2", "value": 1.5}, {"measurement": "Times-change in DETECT score, with clavulanic acid", "setting": "[4]; isolate SF148: CTX-M-14", "value": 16.8}, {"measurement": "Times-change in DETECT score, with clavulanic acid", "setting": "[4]; isolate SF207: CMY-2", "value": 1.2}, {"measurement": "Times-change in DETECT score, with clavulanic acid", "setting": "[4]; isolate SF325: CTX-M-14/17/18, OXA", "value": 5.7}, {"measurement": "Times-change in DETECT score, with clavulanic acid", "setting": "[4]; isolate SF410: CTX-M-15", "value": 4.8}, {"measurement": "Times-change in DETECT score, with clavulanic acid", "setting": "[4]; isolate SF468: CTX-M-14, TEM-1", "value": 15.5}, {"measurement": "Times-change in DETECT score, with clavulanic acid", "setting": "[4]; isolate SF473: CTX-M-14/17/18", "value": 13.0}, {"measurement": "Times-change in DETECT score, with clavulanic acid", "setting": "[4]; isolate SF487: CTX-M-14", "value": 9.9}, {"measurement": "Times-change in DETECT score, with clavulanic acid", "setting": "[4]; isolate SF674: CTX-M-15", "value": 5.8}, {"measurement": "turnover number (tn), inhibitor molecules to inactivate one β-lactamase enzyme", "setting": "[5]", "value": "one"}, {"measurement": "turnover number (tn), inhibitor molecules to inactivate one β-lactamase enzyme", "setting": "[6]", "value": "more than 16,000"}, {"measurement": "IC50 fold lower than that for sulbactam", "setting": "[7]", "value": 60, "unit": "fold"}, {"measurement": "turnover number (tn), inhibitor molecules to inactivate one β-lactamase enzyme", "setting": "[8]", "value": 160}, {"measurement": "IC50 fold lower than that for sulbactam", "setting": "[9]", "value": 580, "unit": "fold"}]}
{"compound": "C[C@H]1COc2c(N3CCN(C)CC3)c(F)cc3c(=O)c(C(=O)O)cn1c23", "note": "[levofloxacin]", "values": [{"measurement": "resistance identified, number of isolates", "setting": "[1]; CTX-M-producing bacteria", "value": 8}, {"measurement": "resistance identified, percent of isolates", "setting": "[1]; CTX-M-producing bacteria", "value": 73, "unit": "%"}, {"measurement": "resistance identified, number of isolates", "setting": "[1]; bacteria lacking CTX-Ms", "value": 13}, {"measurement": "resistance identified, percent of isolates", "setting": "[1]; bacteria lacking CTX-Ms", "value": 14, "unit": "%"}]}
{"compound": "O=C1CN(/N=C/c2ccc([N+](=O)[O-])o2)C(=O)N1", "note": "[nitrofurantoin]", "values": [{"measurement": "resistance identified, number of isolates", "setting": "[1]; CTX-M-producing bacteria", "value": 1}, {"measurement": "resistance identified, percent of isolates", "setting": "[1]; CTX-M-producing bacteria", "value": 10, "unit": "%"}, {"measurement": "resistance identified, number of isolates", "setting": "[1]; bacteria lacking CTX-Ms", "value": 2}, {"measurement": "resistance identified, percent of isolates", "setting": "[1]; bacteria lacking CTX-Ms", "value": 2, "unit": "%"}]}
{"compound": "CC1(C)[C@H](C(=O)O)N2C(=O)C[C@H]2S1(=O)=O", "note": "[sulbactam]", "values": [{"measurement": "turnover number (tn), inhibitor molecules to inactivate one β-lactamase enzyme", "setting": "[2]", "value": "13,000"}, {"measurement": "turnover number (tn), inhibitor molecules to inactivate one β-lactamase enzyme", "setting": "[8]", "value": "10,000"}]}
{"compound": "CN(C)c1cc(NC(=O)CNC(C)(C)C)c(O)c2c1C[C@H]1C[C@H]3[C@H](N(C)C)C(O)=C(C(N)=O)C(=O)[C@@]3(O)C(O)=C1C2=O", "note": "[tigecycline]", "values": [{"measurement": "resistance in the isolates (in words)", "setting": "[1]", "value": "no tigecycline-resistant isolates were identified"}]}
{"compound": "NC[C@H]1O[C@H](O[C@H]2[C@H](O)[C@@H](O[C@H]3O[C@H](CO)[C@@H](O)[C@H](N)[C@H]3O)[C@H](N)C[C@@H]2N)[C@H](N)C[C@@H]1O", "note": "[tobramycin]", "values": [{"measurement": "resistance identified, number of isolates", "setting": "[1]; CTX-M-producing bacteria", "value": 5}, {"measurement": "resistance identified, percent of isolates", "setting": "[1]; CTX-M-producing bacteria", "value": 45, "unit": "%"}, {"measurement": "resistance identified, number of isolates", "setting": "[1]; bacteria lacking CTX-Ms", "value": 2}, {"measurement": "resistance identified, percent of isolates", "setting": "[1]; bacteria lacking CTX-Ms", "value": 2, "unit": "%"}]}
{"compound": "gentamicin", "values": [{"measurement": "resistance identified, number of isolates", "setting": "[1]; CTX-M-producing bacteria", "value": 5}, {"measurement": "resistance identified, percent of isolates", "setting": "[1]; CTX-M-producing bacteria", "value": 45, "unit": "%"}, {"measurement": "resistance identified, number of isolates", "setting": "[1]; bacteria lacking CTX-Ms", "value": 7}, {"measurement": "resistance identified, percent of isolates", "setting": "[1]; bacteria lacking CTX-Ms", "value": 7, "unit": "%"}]}
{"compound": "piperacillin/tazobactam", "values": [{"measurement": "resistance in the isolates (in words)", "setting": "[1]", "value": "not detected"}]}
{"compound": "trimethoprim/sulfamethoxazole", "values": [{"measurement": "resistance identified, number of isolates", "setting": "[1]; CTX-M-producing bacteria", "value": 8}, {"measurement": "resistance identified, percent of isolates", "setting": "[1]; CTX-M-producing bacteria", "value": 73, "unit": "%"}, {"measurement": "resistance identified, number of isolates", "setting": "[1]; bacteria lacking CTX-Ms", "value": 21}, {"measurement": "resistance identified, percent of isolates", "setting": "[1]; bacteria lacking CTX-Ms", "value": 22, "unit": "%"}]}
